The numbers were not newly measured in PMC10640708 (ACS chemical biology, 2018), which cites them from elsewhere.

The data set addresses calcium sensing receptor (CaSR). The settings on record: read-out: EC50 of CaSR activation; Ca2+ alone.

Each structure is given as a SMILES string.

In general, EC50 refers to the concentration giving half of the maximal effect. With `[Ca+2]` [Ca^2+], the EC50 was approximately 4 mM.
